Reference: patent publication US6342515B1, “Remedy for neurodegenerative diseases” (Dainippon Pharmaceutical Co., Ltd., priority 1997, dated 2002)
Marks after values point to notes of the source that are not given here.

How the values were obtained:
C57 black mice = conditions: MPTP hydrochloride 15 mg/kg s.c. once; cited from earlier work
C57 black male mice [1] = assay: Inhibitory effect on MPTP-induced dopaminergic neurodegeneration (striatal DA and DOPAC by HPLC); assay type: in vivo, mouse; conditions: for Inhibitory Rate (%) DA / Inhibitory Rate (%) DOPAC / DA (ng/g tissue) / DOPAC (ng/g tissue): striatum, 24 hours after last MPTP; for DA (ng/g tissue) / DOPAC (ng/g tissue): mean ± standard error; for inhibitory effect on the MPTP-induced reduction in the contents of dopamine and DOPAC in the striatum: po
Experimental: (§1) In each experiment, the contents of monoamine neurotransmitters and metabolites thereof in the striatum were measured by high performance liquid chromatography (HPLC) method. HPLC was carried out using a system consisting of a pump (L-6000, manufactured by Hitachi, Ltd., Japan), an autoinjector, a column (Cosmosil 5C18-A, manufactured by Nacalai Tesque, Inc., Japan; 4.6Ø×250 mm), and an electrochemical detector (ECD-100, manufactured by Eicom Corporation, Japan) under the following conditions.
In addition, the statistical analysis was carried out by Dunnett's multiple comparison test.
(§2) C57 black male mice (11-week-old) were used in the experiment. MPTP hydrochloride was dissolved in a physiological saline solution in a concentration of 3 mg/ml, and the resulting solution was intraperitoneally injected to the mice in a volume of 0.1 ml per 10 g of body weight, i.e., at a dose of 30 mg/kg, once a day for 8 days repetitively. […]
(§3) The striatum excised was homogenized with a 50-fold volume of 0.1 N formic acid:acetone (15:85) containing an internal standard substance (5-hydroxytriptophol; 20 ng/ml), and the mixture was centrifuged under cooling. A fixed amount of the supernatant was collected and evaporated to dryness under stream of nitrogen gas. Then, the resultant was dissolved in a 0.01 N acetic acid and centrifuged, and then the contents of various monoamine neurotransmitters and metabolites thereof in the supernatant were measured by HPLC being equipped with an electrochemical detector.
MPTP hydrochloride was intraperitoneally administered to C57 black male mice (11-week-old) at a dose of 30 mg/kg once a day for 8 days repetitively in the same manner as in Experiment 1. The test drugs, i.e., antiepileptic agents, were suspended in a 0.5% aqueous tragacanth solution, and the resultant was orally administered to the mice in a volume of 0.1 ml per 10 g of body weight 30 minutes prior to the MPTP administration for 8 days. […] The contents of dopamine and a metabolite thereof in the striatum were measured in the same manner as in Experiment 1. […] The dosages for each administration of various antiepileptic agents are shown below. […] Forsch. (Drug Res.), 30, 477 (1980) for other antiepileptic agents were employed, respectively.
The inhibitory rate was calculated from the values in the normal animal group, the vehicle-treated group and the test drug-treated group. The values in Table represent a mean value ± a standard error, and the marks * and ** mean that there is a significant difference from the value of the vehicle-treated group with p<0.05 and p<0.01, respectively.
The perpendicular lines in the figures represent standard errors, and the marks * and ** mean that there is a significant difference from the value of the vehicle-treated group with p<0.05 and p<0.01, respectively.

C57 black male mice [2] = assay: Preparation of animal model for Parkinson's disease: striatal monoamine neurotransmitters and metabolites after MPTP; assay type: in vivo, mouse; conditions: MPTP hydrochloride 30 mg/kg ip once a day for 8 days
Experimental: as §1, §2, §3
The changes in the contents of various neurotransmitters and metabolites thereof 24 hours after the last MPTP administration are shown in FIG. 1. The number of animals in each group is 8, and the perpendicular lines in the figures represent standard errors, and the mark ** means that there is a significant difference from the value of the control group (the group treated with a physiological saline solution) with p<0.01.

[3] = 24 hours after last administration (FIG. 1)
[4] = 14-days group (14 days after the last MPTP administration), in words (FIG. 2)
[5] = 24-hours group, in words (Table 1)
[6] = 100 mg/kg po for 8 days, 100 mg/kg
[7] = 100 mg/kg po for 8 days, listed as zonisamide, 100 mg/kg

SMILES: O=C1NC(=O)C(c2ccccc2)(c2ccccc2)N1 [PHT, Phenytoin]
- inhibitory effect on dopamine depletion induced by MPTP (C57 black mice): show an inhibitory effect
- Inhibitory Rate (%) DA (C57 black male mice [1]; 30 mg/kg po for 8 days): 37.4%
- Inhibitory Rate (%) DOPAC (C57 black male mice [1]; 30 mg/kg po for 8 days): 30.2%
- DA (ng/g tissue) (C57 black male mice [1]; 30 mg/kg po for 8 days): 4073 ± 454* ng/g tissue
- DOPAC (ng/g tissue) (C57 black male mice [1]; 30 mg/kg po for 8 days): 257 ± 30* ng/g tissue

SMILES: CN1CC=C(c2ccccc2)CC1 [MPTP, 1-methyl-4-phenyl-1,2,3,6-tetrahydropyridine]
- contents of dopamine (DA), homovanillic acid (HVA) and DOPAC in the striatum (C57 black male mice [2]; [3]): significantly reduced
- contents of noradrenaline (NA), serotonin (5HT), MOPEG and 5HIAA in the striatum (C57 black male mice [2]; [3]): never affected
- reduction in the contents of dopamine and metabolites thereof in the striatum (C57 black male mice [2]; 14 days after last administration (FIG. 2)): irreversible

SMILES: CC(=O)Nc1nnc(S(N)(=O)=O)s1 [AZA, Acetazolamide]
- Inhibitory Rate (%) DA (C57 black male mice [1]; 100 mg/kg po for 8 days): −4.1%
- Inhibitory Rate (%) DOPAC (C57 black male mice [1]; 100 mg/kg po for 8 days): 1.2%
- DA (ng/g tissue) (C57 black male mice [1]; 100 mg/kg po for 8 days): 1803 ± 428 ng/g tissue
- DOPAC (ng/g tissue) (C57 black male mice [1]; 100 mg/kg po for 8 days): 138 ± 23 ng/g tissue

SMILES: CCCC(CCC)C(=O)[O-].[Na+] [VPA, Sodium valproate]
- Inhibitory Rate (%) DA (C57 black male mice [1]; 800 mg/kg po for 8 days): 17.5%
- Inhibitory Rate (%) DOPAC (C57 black male mice [1]; 800 mg/kg po for 8 days): 13.2%
- DA (ng/g tissue) (C57 black male mice [1]; 800 mg/kg po for 8 days): 2984 ± 468 ng/g tissue
- DOPAC (ng/g tissue) (C57 black male mice [1]; 800 mg/kg po for 8 days): 187 ± 29 ng/g tissue

SMILES: CCC1(c2ccccc2)C(=O)NC(=O)NC1=O [PB, Phenobarbital]
- Inhibitory Rate (%) DA (C57 black male mice [1]; 40 mg/kg po for 8 days): 23.5%
- Inhibitory Rate (%) DOPAC (C57 black male mice [1]; 40 mg/kg po for 8 days): 16.3%
- DA (ng/g tissue) (C57 black male mice [1]; 40 mg/kg po for 8 days): 3310 ± 544 ng/g tissue
- DOPAC (ng/g tissue) (C57 black male mice [1]; 40 mg/kg po for 8 days): 200 ± 32 ng/g tissue

SMILES: Nc1nnc(-c2cccc(Cl)c2Cl)c(N)n1 [LTG, 3,5-diamino-6-(2,3-dichlorophenyl)-1,2,4-triazine]
- inhibitory effect on dopamine depletion induced by MPTP (C57 black mice): show an inhibitory effect
- Inhibitory Rate (%) DA (C57 black male mice [1]; 30 mg/kg po for 8 days): 51.6%
- Inhibitory Rate (%) DOPAC (C57 black male mice [1]; 30 mg/kg po for 8 days): 34.1%
- DA (ng/g tissue) (C57 black male mice [1]; 30 mg/kg po for 8 days): 4844 ± 676** ng/g tissue
- DOPAC (ng/g tissue) (C57 black male mice [1]; 30 mg/kg po for 8 days): 273 ± 31** ng/g tissue

SMILES: CCC1(C)CC(=O)NC1=O (centres unmarked) [ESM, Ethosuximide]
- Inhibitory Rate (%) DA (C57 black male mice [1]; 600 mg/kg po for 8 days): −18.7%
- Inhibitory Rate (%) DOPAC (C57 black male mice [1]; 600 mg/kg po for 8 days): −12.9%
- DA (ng/g tissue) (C57 black male mice [1]; 600 mg/kg po for 8 days): 1008 ± 182 ng/g tissue
- DOPAC (ng/g tissue) (C57 black male mice [1]; 600 mg/kg po for 8 days): 80 ± 10 ng/g tissue

SMILES: NC(=O)N1c2ccccc2C=Cc2ccccc21 [CBZ, Carbamazepine]
- inhibitory effect on dopamine depletion induced by MPTP (C57 black mice): does not show such effect
- inhibitory effect on the MPTP-induced reduction in the contents of dopamine and DOPAC in the striatum (C57 black male mice [1]; [4]): did not show any significant inhibitory effect
- inhibitory effect on the MPTP-induced reduction in the contents of dopamine and DOPAC in the striatum (C57 black male mice [1]; [5]): did not show any significant inhibitory effect
- Inhibitory Rate (%) DA (C57 black male mice [1]; 20 mg/kg po for 8 days): 25.0%
- DA (ng/g tissue) (C57 black male mice [1]; 20 mg/kg po for 8 days): 3087 ± 453 ng/g tissue
- DOPAC (ng/g tissue) (C57 black male mice [1]; 20 mg/kg po for 8 days): 251 ± 36 ng/g tissue
- Inhibitory Rate (%) DA (C57 black male mice [1]; 60 mg/kg po for 8 days): 20.8%
- Inhibitory Rate (%) DOPAC (C57 black male mice [1]; 60 mg/kg po for 8 days): 23.0%
- DA (ng/g tissue) (C57 black male mice [1]; 60 mg/kg po for 8 days): 2894 ± 750 ng/g tissue
- DOPAC (ng/g tissue) (C57 black male mice [1]; 60 mg/kg po for 8 days): 202 ± 52 ng/g tissue

SMILES: CN1C(=O)CN=C(c2ccccc2)c2cc(Cl)ccc21 [DZP, Diazepam]
- Inhibitory Rate (%) DA (C57 black male mice [1]; 5 mg/kg po for 8 days): 24.3%
- Inhibitory Rate (%) DOPAC (C57 black male mice [1]; 5 mg/kg po for 8 days): 18.3%
- DA (ng/g tissue) (C57 black male mice [1]; 5 mg/kg po for 8 days): 3356 ± 451 ng/g tissue
- DOPAC (ng/g tissue) (C57 black male mice [1]; 5 mg/kg po for 8 days): 208 ± 28 ng/g tissue

SMILES: NS(=O)(=O)Cc1noc2ccccc12 [ZNS, 3-sulfamoylmethyl-1,2-benzisoxazole]
- inhibitory effect on the MPTP-induced reduction in the contents of dopamine and DOPAC in the striatum (C57 black male mice [1]; [4]): dose-dependent inhibitory effect
- inhibitory effect on the MPTP-induced reduction in the contents of dopamine and DOPAC in the striatum (C57 black male mice [1]; [5]): dose-dependent inhibitory effect
- Inhibitory Rate (%) DA (C57 black male mice [1]; 10 mg/kg po for 8 days): 22.3%
- Inhibitory Rate (%) DOPAC (C57 black male mice [1]; 10 mg/kg po for 8 days): 29.8%
- DA (ng/g tissue) (C57 black male mice [1]; 10 mg/kg po for 8 days): 3797 ± 201* ng/g tissue
- DOPAC (ng/g tissue) (C57 black male mice [1]; 10 mg/kg po for 8 days): 221 ± 11* ng/g tissue
- Inhibitory Rate (%) DA (C57 black male mice [1]; 30 mg/kg po for 8 days): 80.3%
- Inhibitory Rate (%) DOPAC (C57 black male mice [1]; 30 mg/kg po for 8 days): 82.1%
- DA (ng/g tissue) (C57 black male mice [1]; 30 mg/kg po for 8 days): 7373 ± 685** ng/g tissue
- DOPAC (ng/g tissue) (C57 black male mice [1]; 30 mg/kg po for 8 days): 370 ± 27** ng/g tissue
- Inhibitory Rate (%) DA (C57 black male mice [1]; [6]): 97.2%
- Inhibitory Rate (%) DOPAC (C57 black male mice [1]; [6]): 109.1%
- Inhibitory Rate (%) DA (C57 black male mice [1]; [7]): ~100%
- Inhibitory Rate (%) DOPAC (C57 black male mice [1]; [7]): ~100%
- DA (ng/g tissue) (C57 black male mice [1]; 100 mg/kg po for 8 days): 8434 ± 336** ng/g tissue
- DOPAC (ng/g tissue) (C57 black male mice [1]; 100 mg/kg po for 8 days): 447 ± 24** ng/g tissue
